Legend:
[1] = test system: Microsomes from senescing carnation flowers; assay: Inhibition of ethylene formation in vitro in carnation microsomes; format: biochemical
Protocol: This Example illustrates the inhibition of ethylene formation in vitro by the glucose ester of ferulic acid.
Microsomes from senescing carnation flowers were treated with varying quantities of the glucose ester of ferulic acid, isolated as described in Example 1, and the production of ethylene was determined as a percentage of the control production of ethylene in the absence of added ferulic acid ester

[2] = test system: petals of carnation flowers; assay: In vivo prevention of ethylene formation in carnation petals after incubation with ACC; details: 1 mM taken up transpirationally
Protocol: This Example illustrates the use of the glucose ester of ferulic acid for in vivo prevention of ethylene formation in carnations.
The glucose ester of ferulic acid (1 mM), isolated as described in Example 1, was taken up transpirationally into petals of carnation flowers. Ethylene production was determined as a percentage of the ethylene produced by untreated control petals at various times after incubation with ACC.

[3] = test system: lipoxygenase (LOX); assay: Lipoxygenase activity, carnation microsomal membranes; format: biochemical
Description: (§1) This Example illustrates the inhibition of lipoxygenase (LOX) activity by the glucose ester of ferulic acid.

[4] = test system: lipoxygenase (LOX); assay: Lipoxygenase activity, bean cotyledon membrane and cytosol; format: biochemical
Description: as §1

[5] = Radical scavenging in a chemical system; details: tests with a chemical system

inhibition of lipoxygenase activity derived from carnation (in words) ([3]; 40 μM solution): almost complete inhibition
Lipoxygenase activity (% of control) ([3]; 100 μg membrane protein from Stage IV carnation, 40 μM): 1.8 % of control
effect against LOX from other plant systems including bean cotyledons (in words) [4]: effective
Lipoxygenase activity (% of control) ([4]; 10 μg cytosol protein of 9 d bean cotyledon, 50 μM): 48.4 % of control
Lipoxygenase activity (% of control) ([4]; 10 μg cytosol protein of 9 d bean cotyledon, 100 μM): 35.9 % of control
Lipoxygenase activity (% of control) ([4]; 60 μg membrane protein of 9 d bean cotyledon, 50 μM): 46.3 % of control
Lipoxygenase activity (% of control) ([4]; 60 μg membrane protein of 9 d bean cotyledon, 100 μM): 37.8 % of control
effect on enzyme activity in membrane and cytosol preparations (in words) ([4]; 100 μm concentrations, all experiments): caused an inhibition of enzyme activity
Structure (SMILES): COc1cc(/C=C/C(=O)O[C@@H]2O[C@H](CO)[C@@H](O)[C@H](O)[C@H]2O)ccc1O [glucose ester of ferulic acid]
Ethylene Production ([1]; Control + 10 μM of Additive): 0.518 ± 0.019 n1.100 μg^-1 protein h^-1
Ethylene Production % Control ([1]; Control + 10 μM of Additive): 53.9%
Ethylene Production ([1]; Control + 50 μM of Additive): 0.014 ± 0.005 n1.100 μg^-1 protein h^-1
Ethylene Production % Control ([1]; Control + 50 μM of Additive): 2.0%
Ethylene Production ([1]; Control + 100 μM of Additive): 0 n1.100 μg^-1 protein h^-1
Ethylene Production % Control ([1]; Control + 100 μM of Additive): 0%
ethylene formation (in words) ([1]; concentration of 100 μM): zero
% Inhibition of ethylene production ([2]; 12 hrs after treatment): 100%
% Inhibition of ethylene production ([2]; 16 hrs after treatment): 97.3%
% Inhibition of ethylene production ([2]; 21 hrs after treatment): 90.4%
% Inhibition of ethylene production ([2]; 26 hrs after treatment): 81.7%
radical scavenger activity (in words) [5]: shown promise as a full radial scavenger
